Laboratory results: patent US9927437B2, “Treating neurodegenerative disease” (THE BRIGHAM AND WOMEN'S HOSPITAL, INC., priority 2013, dated 2018)
Entries after “also recorded” stand apart in the source; their conditions may differ.

Experiments:
T cells = assay: T-cell response in EAE mice (recall proliferation, cytokines, polarization); assay type: in vivo, mouse; conditions: for T-cell response: NOD EAE, daily Miglustat
Procedure: FIGS. 9a-d. Depletion of reactive astrocytes reduces the recruitment of peripheral leukocytes to the CNS. (a-d). EAE was induced in WT or GFAP^TK F1 hybrid mice and Ganciclovir (GCV) or vehicle control (PBS) was administered as in FIG. 1b. Data are representative of three independent experiments with n≥7 mice/group (means and s.e.m.). (a) Effect of GCV administration on reactive astrocytes detected by GFAP staining (b) Recruitment of monocytes (red gate) and lymphocytes (green gate) to the CNS assessed by FACS. Data are representative of three independent experiments. Statistical analysis by Student's t-test. (c, d) Effect of the depletion of reactive astrocytes during the chronic phase of EAE on the recall proliferative response to MOG(35-55) or anti-CD3 (c) and the expression of IFN-γ, IL-17A, Foxp3 and IL-10 in splenic CD4+ T cells (d). *P<0.05, and (n.s) not significant.
FIGS. 12a-i. […] (a) Naïve C57BL/6 (Left panel) and NOD (right panel) mice were treated with LacCer (10 μg per mouse) or vehicle as indicated by red arrows, and EAE clinical scores was recorded. At experimental end point (day 25), astrocytes were isolated and their transcriptional profile was determined by nCounter Nanostring analysis. (b-e) EAE was induced in C57BL/6 (b, c) or NOD mice (d, e) and LacCer or vehicle were administrated as in FIGS. 1g and 1h, respectively. Splenic T-cell recall response to MOG(35-55) (20 μg/ml); proliferation (b, d) and secretion of IL-17A, IFN-γ and IL-10 cytokines (c, e). Data are representative of two independent experiments with ≥8 mice/group (mean and s.e.m.). (f-i) EAE NOD mice were treated with PDMP or vehicle during the chronic phase as in FIG. 1K. Data are representative of three independent experiments with n≥8 mice/group (mean and s.e.m.). (f) qPCR analysis of the expression of tbx21, ifng, rorc, il17A, csf2, il10, foxp3, and tgfb1 mRNA of CD3^+CD4^+ T-cells isolated from the CNS; expression is presented relative to gapdh. (g, h) Recall response to MOG(35-55) (20 μg/ml); proliferation (g) and secretion of IL-17A, IFN-γ and IL-10 cytokines (h). (i) Expression of IFN-γ, IL-17A, Foxp3 and IL-10 by splenic CD3^+CD4^+ T cells (mean and s.e.m.).
Splenocytes and lymph node cells were cultured in X-VIVO medium and were plated for 72 h at a density of 5×10^5 cells per well in the presence of MOG35-55 peptide. During the final 16 h, cells were pulsed with […] [3H]thymidine (PerkinElmer), followed by collection on glass fiber filters and analysis of incorporated [3H]thymidine in a-counter (1450 MicroBeta TriLux; PerkinElmer). Supernatants were collect after 48 h of culture for cytokine measurement by enzyme-linked immunosorbent assay^14. For intracellular cytokine staining, cells were stimulated for 6 h with PMA (phorbol 12-myristate 13-acetate; 50 ng/ml; Sigma), ionomycin (1 μg/ml; Sigma) and monensin (GolgiStop; […]; BD Biosciences). After staining of surface markers, cells were fixed and made permeable according to the manufacturer's instructions BD Cytofix/Cytoperm™ Kit (BD Biosciences), or Foxp3 Fixation/Permeabilization (Ebiosceince).

reactive astrocytes = assay: EAE in F1 NOD C57BL/6 GFAP-HSV-TK hybrid mice, depletion of reactive astrocytes; assay type: in vivo, mouse
inflammatory monocytes = assay: Recruitment of inflammatory monocytes to the CNS of EAE NOD mice (flow cytometry); assay type: in vivo, mouse; conditions: daily Miglustat from onset of progressive phase
primary astrocytes = assay: Activation of cultured primary astrocytes, mRNA expression; assay type: cell-based, mouse; conditions: primary mouse astrocytes activated with LPS/IFNγ; Miglustat
Procedure: FIGS. 3a-m. LacCer produced by B4GALT6 acts in an autocrine manner to boost astrocyte activation. Cultured astrocytes were pre-treated for 1 h with PDMP (25 μM), LacCer (10 μM), both (LacCer+PDMP), or vehicle (vehicle), followed by activation with lipopolysaccharide (100 ng/ml) and Interferon-γ (100 Units/ml) (LPS/IFNγ) or left un-treated (control). (a) Heatmap depicting mRNA expression, as detected by Nanostring nCounter analysis, in astrocytes stimulated with LPS/IFNγ. Representative data of three independent experiments. (b) Histogram presentation of the normalized gene expression presented in (a), statistical analysis by one-way ANOVA followed by Tukey post-hoc analysis. (c-i) The expression of B4galt5 (shB4galt5), B4galt6 (shB4galt6) or non-targeting shRNA (ShControl) in C8-D30 astrocytes was knocked-down using verified shRNA (n≥4). (c) qRT analysis of B4galt5 and B4galt6 mRNA expression. (d-f) astrocytes were activated as in (a) and mRNA expression for (d) H2-Aa, (e) Ccl5 and (f) Cxcl10 was determined; expression is presented relative to house keeping gene (Gapdh) (n≥4). (g) Schematic map of the astrocyte-specific shRNA lentiviral vector. […] NOD mice were injected i.c.v. with 1×10^7 IU of shControl, shB4galt5 or shB4galt6 lentivirus, at day 35 after EAE induction (progressive phase). n=10 mice per group (h, i) 10 days after i.c.v. injection experiment was terminated and (h) b4galt5 and b4galt6 expression levels were determined by qPCR in astrocytes isolated from naïve or EAE NOD mice; expression normalized to gapdh and presented relative to that of cells from naïve mice. Representative data of two independent experiments, Statistical analysis by one-way ANOVA, followed by Tukey post-hoc analysis. (i) LacCer levels were quantified of in the CNS of naïve or EAE NOD mice treated as shown in (j). Statistical analysis by one-way ANOVA, followed by Tukey post-hoc analysis. (j) EAE clinical scores. Representative data of two independent experiments. Statistical analysis as in (FIG. 1a). (k) Cultured primary astrocytes were pre-treated for 1 h with PDMP (25 μM), LacCer (10 μM), both (LacCer+PDMP), or vehicle control (vehicle), followed by activation with LPS/IFNγ for 45 min, or left un-treated (control, Con). IRF-1 and Lamin B expression in the nuclear fraction analyzed by western blot and the degree of IRF-1 translocation to the nucleus was assessed by the ratio between the expression of IRF-1 and Lamin-B in the nuclear fractions following densitometric quantification on four independent experiments (right panel). Statistical analysis by one-way ANOVA, followed by Tukey post-hoc analysis. (l) ChIP analysis of the interaction of NF-κB, and IRF-1 with the) nos2 promoter in primary cultured astrocytes. Experimental design and data analysis as in (FIG. 4c). Data from two independent experiments (m) qPCR analysis of the expression of nos2, csf2, ccl2, ccl5, il6, and tlr2 in astrocyte cultures established from WT or IRF-1 deficient (IRF-1 KO) mice, pre-treated with LacCer or vehicle, and activated with LPS/IFNγ. […]
FIGS. 14a-g. […] (a) Cultured astrocytes were pre-treated for 1 h with PDMP (25 μM), LacCer (10 μM), both (LacCer+PDMP), or vehicle control (vehicle), followed by activation with LPS/IFNγ for 6 h, or left un-treated (control, Con). mRNA expression was analyzed 6 h following activation. qPCR analysis of the expression of cc/5, csf2, nos2, il6, H2-Aa, and tlr2 presented relative to gapdh. […]

EAE NOD mice = assay: EAE in NOD mice, progressive phase (clinical score, histopathology, body weight); assay type: in vivo; conditions: NOD EAE; for body weight: daily Miglustat

Structure (SMILES) | peripheral T-cell response (T cells; GFAP-TK F1 mice, GCV during progressive phase) | EAE scores, astrocyte depletion during the progressive phase (reactive astrocytes; 25 mg/kg daily s.c. days 30-50) | EAE scores, astrocyte depletion during the acute phase (reactive astrocytes; 25 mg/kg daily s.c. from 7 days before induction until day 15) | leukocyte infiltration in the CNS (reactive astrocytes; treatment during progressive phase, FACS) | recruitment of inflammatory monocytes to the CNS (inflammatory monocytes) | astrocyte activation (primary astrocytes) | T-cell response (T cells) | T-cell response (T cells; listed as miglustat) | body weight (EAE NOD mice) | body weight (EAE NOD mice; listed as miglustat) | clinical course of EAE disease progression (EAE NOD mice; daily from onset of progressive phase, oral 1800 or 600 mg/kg, or nasal 900 mg/kg twice a day)
Nc1nc(O)c2ncn(COC(CO)CO)c2n1 [GCV, Ganciclovir] | did not affect | significant amelioration of EAE | significant worsening of EAE | decreased leukocyte infiltration |  |  |  |  |  |  | 
CCCCN1C[C@H](O)[C@@H](O)[C@H](O)[C@H]1CO [Miglustat, N-butyl-deoxynojirimycin] |  |  |  |  | reduced the recruitment; also recorded: reduces monocytes recruitment | inhibits astrocyte activation | does not affect T-cell polarization | did not affect | does not affect body weight | did not affect | suppressed the clinical course of disease progression; also recorded: halts chronic EAE progression
